Experimental data taken from patent publication US20100210682A1, “Repeated Dosing of TRPV1 Antagonists” (ABBOTT LABORATORIES, priority 2009, published 2010).
Values after ≈ are worked out from the molar mass of the structure shown.

Tests used:
[1] = system: MIA-induced osteoarthritic rats; assay: Osteoarthritic pain model in rats (MIA), hind limb grip force; type: in vivo, rat; conditions: grip force; for ED50: Rattus norvegicus, po, MIA-induced osteoarthritic rats, p.o., acute dosing, read-out: Acute ED50 (μmol/kg; 95% Cl); for % Efficacy at Reduced Dose, Chronic (BID, 12 days) / % Efficacy at Reduced Dose, Acute: relative to naïve group; for % Efficacy at Reduced Dose, Acute: 1 hour after acute dosing; for analgesic effects following repeated dosing vs acute dosing: BID 12 days, reduced dose
Experimental: Unilateral knee joint osteoarthritis was induced in the rats by a single intraarticular (i.a.) injection of sodium monoiodoacetate (MIA) (Sigma, St. Louis, Mo.) (3 mg in 0.05 mL sterile isotonic saline) into the joint cavity using a 26 G needle under light (2-4%) halothane (Halocarbon Laboratories, River Edge, N.J.) anesthesia [Bove S E, Calcaterra S L, Brooker R M, Huber C M, Guzman R E, Juneau P L, et al. Weight bearing as a measure of disease progression and efficacy of anti-inflammatory compounds in a model of monosodium iodoacetate-induced osteoarthritis. Osteoarthritis Cartilage 2003; 11:821-30]. Following injection, the animals were allowed to recover from the effects of anesthesia (usually 5-10 min) before returning them to their home cages.
MIA-induced nociception can be assessed by measuring differences in weight bearing (WBD) or decrease in grip force (GF) several days to weeks following MIA injection [Bove S E, Calcaterra S L, Brooker R M, Huber C M, Guzman R E, Juneau P L, et al. Weight bearing as a measure of disease progression and efficacy of anti-inflammatory compounds in a model of monosodium iodoacetate-induced osteoarthritis. Osteoarthritis Cartilage 2003; 11:821-30; Fernihough J, Gentry C, Malcangio M, Fox A, Rediske J, Pellas T, et al. Pain related behaviour in two models of osteoarthritis in the rat knee. Pain 2004; 112:83-93].
In addition to weight-bearing differences, grip strength was also assessed in osteoarthritic rats approximately 21 days after MIA injection. Measurements of peak hind limb grip force were conducted by recording the maximum compressive force exerted on the hind limb strain gauge setup, in a commercially available grip force measurement system (Columbus Instruments, Columbus, Ohio). During testing, each rat was gently restrained by grasping around its rib cage and then allowed to grasp the wire mesh frame (10-12 cm^2) attached to the strain gauge. The experimenter then moved the animal in a rostral-to-caudal direction until the grip was broken. Each rat was sequentially tested twice at an approximately 2 min interval to obtain a raw mean grip force […]. These raw mean grip force data were in turn converted to a maximum hind limb compressive force (CFmax) (gram force)/kg body weight for each animal. A group of age-matched naïve animals was added to each experiment and the data obtained from the different dose groups for the compound being tested were compared to the naïve group.
Compound A was dissolved in 100% polyethylene glycol (PEG 400) for oral administration in a 2 mL/kg injection volume. Compounds B, C, and D were dissolved in 10% ethanol, 20% Tween 80 and 70% polyethylene glycol-400 for oral administration in a 2 mL/kg injection volume. All compounds were dosed orally (p.o.) 60 minutes before behavioral testing.
(§1) In the osteoarthritic pain model, animals were dosed twice-daily for 12 days using a dose that was non-efficacious following a single administration (e.g. 3 μmol/kg p.o. for Compound A). The animals were tested 1 hour after acute dosing (p.o.) and on day 12, 1 hour after oral dosing with either vehicle or the test compound.
The analgesic responses were shown as % effect relative to the healthy, untreated rats (naïve group).

[2] = Plasma levels in osteoarthritic rats after acute and repeated dosing; type: in vivo, rat; conditions: for Plasma Levels, Chronic: 1 hour after last dose on 12 days of BID dosing; for EC50: Rattus norvegicus, osteoarthritic rats, acute dosing
Experimental: as §1

| SMILES | ED50 [1] [µmol/kg] | % Efficacy at Reduced Dose, Chronic (BID, 12 days) ([1]; 5 μmol/kg p.o. BID 12 days) [%] | % Efficacy at Reduced Dose, Acute ([1]; 5 μmol/kg p.o.) [%] | % Efficacy at Reduced Dose, Chronic (BID, 12 days) ([1]; 15 μmol/kg p.o. BID 12 days) [%] | % Efficacy at Reduced Dose, Acute ([1]; 15 μmol/kg p.o.) [%] | analgesic effects following repeated dosing vs acute dosing [1] | Plasma Levels, Chronic ([2]; 5 μmol/kg) [at 5 μmol/kg ng/mL] | Plasma Levels, Chronic ([2]; 15 μmol/kg) [at 15 μmol/kg ng/mL] | EC50 [2] [µg/mL] | % Efficacy at Reduced Dose, Chronic (BID, 12 days) ([1]; 10 μmol/kg p.o. BID 12 days) [%] | % Efficacy at Reduced Dose, Acute ([1]; 10 μmol/kg p.o.) [%] | Plasma Levels, Chronic ([2]; 10 μmol/kg) [at 10 μmol/kg ng/mL] | % Efficacy at Reduced Dose, Chronic (BID, 12 days) ([1]; 12 μmol/kg p.o. BID 12 days) [%] | % Efficacy at Reduced Dose, Acute ([1]; 12 μmol/kg p.o.) [%] | Plasma Levels, Chronic ([2]; 12 μmol/kg) [at 12 μmol/kg ng/mL] |
| --- | --- | --- | --- | --- | --- | --- | --- | --- | --- | --- | --- | --- | --- | --- | --- |
| Cc1nc(Nc2cccc3c2C[C@H](O)CC3)oc1-c1ccc(C(F)(F)F)cc1 [C, (2R)-8-({4-methyl-5-[4-(trifluoromethyl)phenyl]-1,3-oxazol-2-yl}amino)-1,2,3,4-tetrahydronaphthalen-2-ol] | 14 | 38 | 15 | 83 | 22 | significantly increased | 86 | 150 | 0.5 (≈ 1.29 µM) |  |  |  |  |  |  |
| CCC1(CC)C[C@@H](NC(=O)Nc2cccc3cnc(C)cc23)c2cc(F)ccc2O1 [D, N-[(4R)-2,2-diethyl-6-fluoro-3,4-dihydro-2H-chromen-4-yl]-N′-(3-methylisoquinolin-5-yl)urea] | 26 |  |  |  |  | significantly increased |  |  | 1 (≈ 2.45 µM) | 62 | 28 | 217 |  |  |  |
| C[C@@H]1CN(c2ncccc2Cl)CC=C1C(=O)Nc1ccc(C(F)(F)F)cc1 [B, (3S)-3′-chloro-3-methyl-N-[4-(trifluoromethyl)phenyl]-3,6-dihydro-2H-1,2′-bipyridine-4-carboxamide] | 17 |  |  |  |  | significantly increased |  |  | 0.915 (≈ 2.31 µM) |  |  |  | 80 | 30 | 760 |
